Results from patent US8486962B2, “Antifungal agents” (F2G Ltd., priority 2005, dated 2013).
Converted amounts (≈) assume the structure as drawn. Values belong to the compound of their own block, whether it stands above or below them.

Assays:
Aspergillus flavus = assay: MIC, YAG medium, Aspergillus flavus; type: cell-based; conditions: YAG medium; for MIC: Aspergillus flavus, read-out: MIC A Flavus 01
Procedure, shortened: (§1)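 Doubling dilutions (50-0.05 mg/L) were tested against Candida in RPMI with 2% glucose and 0.135M MOPS, pH7.0, at 1-2×10^3 cfu/ml for 24-48 hrs, 35° C; MIC is >80% inhibition at OD485. Aspergillus in YAG medium at 1-2×10^4 cfu/ml for 24 hrs was scored at >70% inhibition; low MICs were retested over 0.5-0.0005 mg/L.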

[1] = tested on: Aspergillus fumigatus AF293; assay: MIC, YAG medium, Aspergillus fumigatus AF293; type: cell-based; conditions: YAG medium; for MIC: Aspergillus fumigatus, AF293, read-out: MIC A Fum. 293
Procedure, shortened: as §1

Aspergillus niger = assay: MIC, YAG medium, Aspergillus niger; type: cell-based; conditions: YAG medium; for MIC: Aspergillus niger, read-out: MIC A Niger 1
Procedure, shortened: as §1

Aspergillus terreus = assay: MIC, YAG medium, Aspergillus terreus; type: cell-based; conditions: YAG medium; for MIC: Aspergillus terreus, read-out: MIC A Terreus 4
Procedure, shortened: as §1

[2] = tested on: Aspergillus fumigatus AF210; assay: MIC, YAG medium, Aspergillus fumigatus AF210; type: cell-based; conditions: YAG medium; for MIC: Aspergillus fumigatus, AF210, read-out: MIC A Fum. 210
Procedure, shortened: as §1

A Terreus 49 = assay: MIC, YAG medium, A Terreus 49; type: cell-based, Aspergillus terreus; conditions: YAG medium; for MIC: Aspergillus terreus, read-out: MIC A Terreus 49
Experimental: Measurement of Minimum Inhibitory Concentrations (MICs)
Between 1 and 5 mgs of compound were accurately weighed out into a sterile Eppendorf tube. The compound was dissolved in DMSO to give a solution containing 5 mg/ml. Tubes were stored at −20° C. until required.
On the day of testing thawed solutions were vortex mixed to ensure homogeneity. 30 μl of solution was removed and added to 570 μl of sterile water in a separate sterile Eppendorf. The thoroughly mixed solution was used to prepare a series of doubling dilutions in water, in a deep well plate. Eleven replicate plates were prepared using a Minitrak by aspirating 20 μl from each well into eleven clear polystyrene 96 well plates.
Spores of Aspergillus spp (Aspergillus fumigatus, Aspergillus terreus, Aspergillus niger and Aspergillus flavus) were harvested from cultures grown on Sabarauds agar for 5 days, and resuspended in PBS/Tween 80 to approx 1×10^7 cfu/ml Other filamentous fungi (Fusarium solani, Scedosporium spp., Trichophyton spp., Absidia corymbifera), were grown on Sabarauds agar for 2-10 days and spores/hyphae resuspended in PBS/Tween to give approx 1×10^7 cfU/ml. Candida species (Candida albicans, Candida glabrata, Candida krusei, Candida parapsilosis and Candida tropicalis) were grown on Sabarauds agar, cells were harvested from the agar using a sterile loop and resuspended in PBS/Tween 80 to approx 1×10^6 cfu/ml. Each organism suspension was diluted in RPMI medium, containing 2% glucose and 0.135M MOPS buffer (pH7.0) to 2×10^4 cfu/ml for Aspergillus spp and other filamentous fungi and 2×10^3 cfu/ml for yeast. 80 μl of an organism suspension was added to each well of the plate containing drug dilutions.
This produced MIC plates with a drug range 50-0.05 mg/L and organism inocula of 1-2×10^4 cfu/ml for Aspergillus spp and other filamentous fungi and 1-2×10^3 cfu/ml for yeasts. All plates were incubated for 24-48 hrs at 35° C. Growth was assessed by monitoring the optical density at 485 nm for each well. The MIC of a compound is the lowest drug concentration that inhibits growth of an organism by >80% compared with a drug free control. MICs are recorded as mg/L. Other growth media can be used for susceptibility testing, and the activity of the described compounds can also be assessed in a medium comprising, 1% glucose, 1% ammonium chloride and 0.5% yeast extract (YAG medium). To perform MIC tests in this medium, dilutions of compounds are prepared in microtitre plates as described above. Fungal strains to be tested are grown and harvested in an identical manner to that described above, each organism suspension is then diluted in YAG medium to 2×10^4 cfu/ml for Aspergillus spp and other filamentous fungi and 2×10^3 cfu/ml for yeast. 80 μl of an organism suspension was added to each well of the plate containing drug dilutions. This produced MIC plates with a drug range 50-0.05 mg/L and organism inocula of 1-2×10^4 cfu/ml for Aspergillus spp and other filamentous fungi and 1-2×10^3 cfu/ml for yeasts. All plates were incubated for 24 hrs at 35° C. Growth was assessed by monitoring the optical density at 485 nm for each well. The MIC of a compound is the lowest drug concentration that inhibits growth of an organism by >70% compared with a drug free control. MICs are recorded as mg/L. In cases where the MIC of an organism is […]0.05 mg/L the MIC is repeated using a concentration range of 0.5-0.0005 mg/L. MIC tests in YAG medium have more clear-cut endpoints and have slightly lower MICS than those performed in RPMI medium.
The following organisms were tested: Aspergillus fumigatus AF293 and Aspergillus fumigatus AF210, Aspergillus niger, Aspergillus terreus, Aspergillus favus, Candida albicans, Candida krusei, Candida tropicalis, Candida glabrata, Candida parapsilosis, Trichophyton rubrum, Trichophyton mentagrophytes, Scedosporium prolificans, Scedosporium apiospermum, Absidia corymbifera, Fusarium solani.

MIC A Flavus 01 (Aspergillus flavus): 12.5 mg/L
MIC A Fum. 293 [1]: >50 mg/L
MIC A Niger 1 (Aspergillus niger): 25 mg/L
MIC A Terreus 4 (Aspergillus terreus): 6.25 mg/L
MIC A Fum. 210 [2]: 50 mg/L
MIC A Terreus 49 (A Terreus 49): 6.25 mg/L
Structure (SMILES): COc1ccc(NC(=O)C(=NOCCN(C)C)c2c(-c3ccccc3)cc3ccccn23)cc1 (mixture of isomers) [Example 295, 2-[(E/Z)-2-Dimethylamino-ethoxyimino]-N-(4-methoxy-phenyl)-2-(2-phenyl-indolizin-3-yl)-acetamide]

MIC A Flavus 01 (Aspergillus flavus): 12.5 mg/L
MIC A Fum. 293 [1]: >50 mg/L
MIC A Niger 1 (Aspergillus niger): 25 mg/L
MIC A Terreus 4 (Aspergillus terreus): 6.25 mg/L
MIC A Fum. 210 [2]: >50 mg/L
MIC A Terreus 49 (A Terreus 49): 6.25 mg/L
Structure (SMILES): COc1ccc(NC(=O)C(=NOCCCN(C)C)c2c(-c3ccccc3)cc3ccccn23)cc1 (mixture of isomers) [Example 296, 2-[(E/Z)-3-Dimethylamino-propoxyimino]-N-(4-methoxy-phenyl)-2-(2-phenyl-indolizin-3-yl)-acetamide]

MIC A Flavus 01 (Aspergillus flavus): 0.4 mg/L
MIC A Fum. 293 [1]: 12.5 mg/L
MIC A Niger 1 (Aspergillus niger): 1.6 mg/L
MIC A Terreus 4 (Aspergillus terreus): 0.8 mg/L
MIC A Fum. 210 [2]: 12.5 mg/L
MIC A Terreus 49 (A Terreus 49): 0.4 mg/L
Structure (SMILES): COc1ccc(NC(=O)C(=NOCCCC(=O)O)c2c(-c3ccccc3)cc3ccccn23)cc1 (mixture of isomers) [Example 297, 4-[1-(4-Methoxy-phenylcarbamoyl)-1-(2-phenyl-indolizin-3-yl)-meth-(E/Z)-ylideneaminooxy]-butyric acid]

MIC (Aspergillus flavus): 0.015 mg/L (≈ 0.0423 µM)
MIC [1]: 0.12 mg/L (≈ 0.339 µM)
MIC (Aspergillus niger): 0.015 mg/L (≈ 0.0423 µM)
MIC (Aspergillus terreus): 0.008 mg/L (≈ 0.0226 µM)
MIC [2]: 0.062 mg/L (≈ 0.175 µM)
MIC (A Terreus 49): 0.002 mg/L (≈ 0.00564 µM)
Structure (SMILES): Cc1ccc(NC(=O)C(=O)c2c(-c3ccccc3)cc3ccccn23)cc1 [Example 135, 2-Oxo-2-(2-phenyl-indolizin-3-yl)-N-p-tolyl-acetamide]

MIC (Aspergillus flavus): 0.008 mg/L (≈ 0.0216 µM)
MIC [1]: 0.12 mg/L (≈ 0.324 µM)
MIC (Aspergillus niger): 0.031 mg/L (≈ 0.0837 µM)
MIC (Aspergillus terreus): 0.008 mg/L (≈ 0.0216 µM)
MIC [2]: 0.12 mg/L (≈ 0.324 µM)
MIC (A Terreus 49): 0.002 mg/L (≈ 0.0054 µM)
Structure (SMILES): COc1ccc(NC(=O)C(=O)c2c(-c3ccccc3)cc3ccccn23)cc1 [Example 139, N-(4-Methoxy-phenyl)-2-oxo-2-(2-phenyl-indolizin-3-yl)-acetamide]

The remaining lines, values behind:

Structure (SMILES): O=C(Nc1ccccc1)C(=O)c1c(-c2ccccc2)cc2ccccn12 [Example 136, 2-Oxo-N-phenyl-2-(2-phenyl-indolizin-3-yl)-acetamide]
MIC (Aspergillus flavus): 0.031 mg/L (≈ 0.0911 µM)
MIC [1]: 0.25 mg/L (≈ 0.734 µM)
MIC (Aspergillus niger): 0.031 mg/L (≈ 0.0911 µM)
MIC (Aspergillus terreus): 0.031 mg/L (≈ 0.0911 µM)
MIC [2]: 0.12 mg/L (≈ 0.353 µM)
MIC (A Terreus 49): 0.004 mg/L (≈ 0.0118 µM)

Structure (SMILES): COc1ccccc1NC(=O)C(=O)c1c(-c2ccccc2)cc2ccccn12 [Example 137, N-(2-Methoxy-phenyl)-2-oxo-2-(2-phenyl-indolizin-3-yl)-acetamide]
MIC (Aspergillus flavus): 0.125 mg/L (≈ 0.337 µM)
MIC [1]: 0.2 mg/L (≈ 0.54 µM)
MIC (Aspergillus niger): 0.062 mg/L (≈ 0.167 µM)
MIC (Aspergillus terreus): 0.06 mg/L (≈ 0.162 µM)
MIC [2]: 0.5 mg/L (≈ 1.35 µM)
MIC (A Terreus 49): 0.06 mg/L (≈ 0.162 µM)

Structure (SMILES): COc1cccc(NC(=O)C(=O)c2c(-c3ccccc3)cc3ccccn23)c1 [Example 138, N-(3-Methoxy-phenyl)-2-oxo-2-(2-phenyl-indolizin-3-yl)-acetamide]
MIC (Aspergillus flavus): 0.015 mg/L (≈ 0.0405 µM)
MIC [1]: 0.12 mg/L (≈ 0.324 µM)
MIC (Aspergillus niger): 0.12 mg/L (≈ 0.324 µM)
MIC (Aspergillus terreus): 0.031 mg/L (≈ 0.0837 µM)
MIC [2]: 0.12 mg/L (≈ 0.324 µM)
MIC (A Terreus 49): 0.004 mg/L (≈ 0.0108 µM)

Structure (SMILES): COC(=O)c1ccc(NC(=O)C(=O)c2c(-c3ccccc3)cc3ccccn23)cc1 [Example 140, 4-[2-Oxo-2-(2-phenyl-indolizin-3-yl)-acetylamino]-benzoic acid methyl ester]
MIC (Aspergillus flavus): 0.031 mg/L (≈ 0.0778 µM)
MIC [1]: 0.12 mg/L (≈ 0.301 µM)
MIC (Aspergillus niger): 0.031 mg/L (≈ 0.0778 µM)
MIC (Aspergillus terreus): 0.031 mg/L (≈ 0.0778 µM)
MIC [2]: 0.12 mg/L (≈ 0.301 µM)
MIC (A Terreus 49): 0.015 mg/L (≈ 0.0376 µM)
